We go through one compound from patent publication US12268702B2, “Antitumor pharmaceutical composition comprising azvudine and chemotherapeutic agent” (HENAN GENUINE BIOTECH CO., LTD., priority 2023, dated 2025).

This test deals with A2058 xenograft tumor model. The test is described as follows: Human melanoma A2058 cell subcutaneous xenograft tumor model. The note with it: azvudine 1 mg/kg, dacarbazine 60 mg/kg, combination 1 + 60 mg/kg; for Tumor volume (mm^3) on the 14th day: 14th day of administration. It counts as in vivo. Here is the method:
Human melanoma cells A2058 (Cat. No.: CRL-11147) were cultured in vitro as a monolayer in DMEM medium containing 10% fetal bovine serum, 100 U/mL penicillin and 100 μg/mL streptomycin, in a 37° C. and 5% CO2 incubator. The cells were routinely digested with trypsin-EDTA and passaged twice a week. When the cell saturation reached 80%-90% and the cell number achieved the requirement, the cells were collected, counted and inoculated.
0.2 mL (5×10^6) of A2058 cells were added with Matrigel, and the mixture was subcutaneously inoculated on the right back of each mouse. The grouping administration was started when the average tumor volume reached about 136 mm^3.

Setting [1] is: based on tumor volume, 14th day.

As to `CN(C)/N=N/c1[nH]cnc1C(N)=O` [Dacarbazine, dacarbazine], the “Tumor volume (mm^3) on the 14th day” value is given as 1,255 ± 186 mm^3. The “Tumor volume (mm^3) on the 14th day” value (listed as dacarbazine) is 1255 mm^3. Moreover, under setting [1], the “T/C (%)” value is 44.77% and the “TGI (%)” value is reported as 56.74%.
